Measurements from patent US20170064966A1, “ANTIMICROBIAL COMPOSITIONS AND METHODS AND USES THEREOF” (BAR ILAN UNIVERSITY, priority 2015, published 2017).
Numbering of substitutions follows the chain as printed. Numbers in names are those of the source. Like-named read-outs stand apart in the source and are kept apart here. Non-standard residues stand in square brackets, D forms with d. No end group written: not given here.

Key:
PA biofilm formation = test: Static biofilm model with N′-loop derived peptides (crystal violet); conditions: for anti-biofilm activity / inhibition of PA biofilm formation: peptides 1-6 at 0.01, 0.05 and 0.1 mM, FIG. 10B
Experimental: The static biofilm model was used to assess the ability of N′-loop derived peptides to reduce PA biofilm formation. Briefly, PA wild type bacteria were grown over night in M9 medium (20 mM NH4Cl; 12 mM Na2HPO4; 22 mM KH2PO4; 8.6 mM NaCl; 1 mM MgSO4; 1 mM CaCl2; 11 mM Dextrose) at 37 C. Following growth cells were diluted to a final concentration of 5*10^7 in M9 medium contacting 1/10 the phosphate concentration. 100 microliter of the bacterial suspension was transferred to each well of 96 wells plate. The six tested peptides were added at different concentrations 0.01, 0.05 and 0.1 mM. The plate was then incubated for 24 h at 37° C. to allow biofilm development. After incubation the medium was removed and the wells were carefully washed twice with sterile ddsH2O to remove planktonic bacteria. Next 150 microliter of 1% crystal violet (w/v) was added to each well in order to stain the biofilm cells. The stain was allowed to incubate for 15 min after which the wells were washed again with ddsH2O. The stain attached to the biofilm was then extracted by adding 200 microliter ethanol (95%). The biofilm biomass was quantified by reading the absorbance at 595nm using an ELISA plate reader.

[1] = test system: P. aeruginosa strains PAO1, PA14 and clinical isolate DK2; test: Flow cell biofilm experiment in the presence of inhibitory peptide
Experimental: Bacterial strains (Pseudomonas aeruginosa strains PA14 and DK2) containing the plasmid pUCP-GFP inserted to bacterial cells by electroporation (pUCP18 that constitutionally expresses the GFP under the lac promoter), were inoculated from −80° C. stock into 2 mL TSB containing 300 μg/mL Carb (to maintain the pUCP-GFP plasmid) and grown overnight at 37° C. with agitation. The next day, bacteria were diluted to 0.05 OD (595 nm) in 1% TSB containing the antibiotics and loaded onto 6 channel 1μ-Slide I^0.4 Luer uncoated (Ibidi). The slide was connected to a flow cell containing fresh 1% TSB with 0.05 Mm, 0.1 mM peptides or without peptides. Fresh media flowed through the slide by a pump at 10 mL/h (2 rpm). Bacteria were grown in the slide for 48 hours at 37° C. After 48 hours, 3 representative pictures from the beginning and the middle of the slide, were taken using SP8 confocal HyD microscope (Leica). Pictures were analyzed by Imaris software (version 7.2.2).

[2] = measured under similar pH conditions, ref (18); read-out: phosphate binding (KD) reported for PstS orthologs; cited from earlier work
[3] = type: binding; conditions: P^32-labeled phosphate, pH 7.5, FIG. 3C

## AIDPALPE
PA biofilm formation
  anti-biofilm activity / inhibition of PA biofilm formation: inhibits most effectively biofilm formation
PA biofilm formation; listed as peptide 3
  anti-biofilm activity / inhibition of PA biofilm formation: most effective peptide

## modified peptide-3: enantiomer of peptide-3 having the N-terminal Ala and C-terminal Glu residues in the D-form (SEQ ID NO. 56) ([dA]IDPALP[dE])
[1]; 0.1 mM in media, 48 h, strains PAO1, PA14, DK2, FIG. 11A
  biofilm formation (biovolume): significantly reduces the biofilm formation
[1]; strains PAO1, PA14, DK2, 48 h, FIG. 11B
  biofilm formation phenotype, confocal microscope images: changes the biofilm formation phenotype of all PA strains examined
PA biofilm formation; 0.1 millimolar modified peptide 3, FIG. 10C
  inhibition of PA biofilm formation: efficiently inhibited biofilm formation

B1: E. coli PstS: PstS ortholog from E. coli, literature value (18) (protein, UniProt P0AG82 26-346, looked up)
Phosphate-binding protein PstS: EASLTGAGATFPAPVYAKWADTYQKETGNKVNYQGIGSSGGVKQIIANTVDFGASDAPLSDEKLAQEGLFQFPTVIGGVVLAVNIPGLKSGELVLDGKTLGDIYLGKIKKWDDEAIAKLNPGLKLPSQNIAVVRRADGSGTSFVFTSYLAKVNEEWKNNVGTGSTVKWPIGLGGKGNDGIAAFVQRLPGAIGYVEYAYAKQNNLAYTKLISADGKPVSPTEENFANAAKGADWSKTFAQDLTNQKGEDAWPITSTTFILIHKDQKKPEQGTEVLKFFDWAYKTGAKQANDLDYASLPDSVVEQVRAAWKTNIKDSSGKPLY
[2]
  Kd: ~3000 nM

B2: wild-type PstS: periplasmic phosphate-binding subunit of the P. aeruginosa Pst transporter, purified from E. coli (protein)
chain: MKLKRLMAALTFVAAGVGAASAVAAIDPALPEYQKASGVSGNLSSVGSDTLANLMTMWAEEYKRLYPNVNIQIQAAGSSTAPPALTEGTANLGPMSRKMKDVELQAFEQKYGYKPTAVPVAVDALAIFVHKDNPIKGLTMQQVDAIFSATRLCGSKQDVKTWGDLGLTGDWAKKPVQLFGRNSVSGTYGYFKEEALCKGDFRPNVNEQPGSASVVQSVSQSLNGIGYSGIGYKTASVKTVALAKKEGAAFVEDNEQNALNGTYPLSRFLYVYVNKAPNKPLDPLEAQFLKLVLSKTGQQVVVKDGYIPLPAKVAEKAIKELGL
modifications: P.aeruginosa PstS - accession number NP_254056.1
[3]; read-out: dissociation constant (KD) for PO4
  Kd: 840 ± 120 nM

B3: S96E (protein)
chain: B2 chain with S96E
modifications: The S96E PstS mutant
[3]
  dissociation constant (KD) for PO4: very weak or no binding
